# Measured values: US11891634B2, “PDE5A destabilizing domains” (The Board of Trustees of the Leland Stanford Junior …, priority 2017, dated 2024)
# Assays:
# [1] = system: NIH3T3 cells expressing AcGFP-PDE5A fusions; experiment: FACS analysis of C-terminal PDE5A mutants (AcGFP-PDE5A fusions), Sildenafil vs vehicle; type: cell-based, mouse; conditions: for Mean Fluorescence intensity: NIH3T3; for Stabilization ratio: Sildenafil 10 μM vs vehicle alone; for basal expression in the absence of ligand (in words): extended PDE5A variants, NIH3T3, no Sildenafil
# Procedure: (§1) The NIH3T3 cell line was cultured in DMEM supplemented with 10% heat-inactivated donor bovine serum (Invitrogen), 2 mM glutamine, 100 U/ml penicillin and 100 μg/ml streptomycin.
# (§2) The ΦNX ecotropic packaging cell line was transfected using standard Lipofectamine 2000 protocols. Viral supernatants were harvested 48 hours, post transfection, filtered and concentrated 10-fold using Amicon Ultra centrifugal filter device with a 100kDa cutoff. NIH 3T3 cells were incubated with concentrated retroviral supernatants supplemented with 4 μg/ml polybrene for 4 hours at 37° C. Cells were washed once with PBS and cultured in growth media for 24-36 hours to allow for viral integration.
# (§3) The transduced NIH3T3 cells were subjected to analysis using fluorescence-activated cell sorting (FACS) to screen the libraries of PDE5A mutants. 24 hours prior to analysis, transduced NIH3T3 cells were plated at 1×10^5 cells per well of a 12-well plate. Cells were removed from the plate using PBS and 2 mM EDTA, washed once with PBS, and resuspended in 200 μL, PBS. FACS analysis was performed on instruments at the Stanford Shared FACS Facility with 10,000 events represented.
# (§4) To identify destabilizing domains that are responsive to the PDE5A ligand, Sildenafil, a cell-based screening assay was employed in which the fluorescence of green fluorescent protein derived from Aequorea coerulescens (AcGFP) served as an indicator of PDE5A stability. A library based on the PDE5A catalytic domain sequences was generated using error prone PCR and then cloned in-frame in front of AcGFP. A Moloney murine leukemia retroviral expression was used to stably integrate this library of PDE5A-AcGFP fusions into NIH-3T3 fibroblasts, and the transduced cells were subjected to three rounds of sorting using flow cytometry. In the first round, cells were treated with 10 μM of PDE5A ligand, Sildenafil for 16-24 before analysis. Fluorescent cells were collected and further cultured in the absence of ligand for 60 hours.
# (§5) A library of AcGFP-PDE5A fusions i.e., C-terminal PDE5A mutants was screened using the cell-based screening assay described previously to identify C-terminal destabilizing domains. […] Identified candidates were subjected to further characterization by FACS. Cells were split into two treatment groups and incubated with either Sildenafil (10 μM) or vehicle alone for 24 hours. Cells that were mock transduced or transduced with the wild-type PDE5A construct were also included in the analysis. The stabilization ratio was calculated as the fold change in GFP intensity of the AcGFP-PDE5A construct in Sildenafil treated sample compared to vehicle alone treated sample. The results are presented in Table 2 where the C terminal PDE5A mutants are denoted as PDE5AC.
# Residue D764 was identified as a mutational hotspot from sequence analysis. PDE5AC (#41) was engineered with either D764N or D764G mutation via site-directed mutagenesis. PDE5AC (#41) +D764N comprises the amino acid sequence of SEQ ID NO. 53 (encoded by SEQ ID NO. 54) and PDE5AC (#41) +D764G comprises the amino acid sequence of SEQ ID NO. 55 (encoded by SEQ ID NO. 56). AcGFP-PDE5A variants were evaluated for Sildenafil dependent stabilization via FACS as described previously. Results from FACS analysis are presented in Table 4 where the C terminal PDE5A mutants are denoted as PDE5AC. The stabilization ratio was calculated as the fold change in GFP intensity of the AcGFP-PDE5A construct in Sildenafil treated sample compared to vehicle alone treated sample.
# Extended versions of human PDE5A that included residues in addition to catalytic domain (residues 535-860 of SEQ ID NO. 1) with Q589R polymorphism (SEQ ID NO. 11) were evaluated for use as C-terminal destabilizing domains. Three extended PDE5A sequences were tested that consisted of residues 535-875 of SEQ ID NO. 1 with Q589R polymorphism (SEQ ID NO. 13); residues 466-875 of SEQ ID NO. 1 with Q589R polymorphism (SEQ ID NO. 15); or residues 420-875 of SEQ ID NO. […]
# PDE5A-AcGFP fusions = experiment: FACS analysis of N-terminal PDE5A mutants (PDE5A-AcGFP fusions), Sildenafil vs vehicle; type: cell-based, mouse; conditions: 24 hours; for Stabilization ratio: Sildenafil 20 μM vs vehicle alone; for Mean Fluorescence Intensity (MFI) Sildenafil (20 μM) / Mean Fluorescence Intensity (MFI) Vehicle control: NIH3T3; for Mean Fluorescence Intensity (MFI) Vehicle control: vehicle alone
# Procedure: as §1, §2, §3, §4
# as §5, with “PDE5A-AcGFP” for “AcGFP-PDE5A”, “N-terminal” for “C-terminal”, “mutants,” for “mutants”, “(20” for “(10”, “The results are presented in Table 6 where the N terminal PDE5A mutants are denoted as PDE5AN. The” for “The”, “sample.” for “sample. The results are presented in Table 2 where the C terminal PDE5A mutants are denoted as PDE5AC.”
# [2] = Table 5 (extended variants), Sildenafil (10 μM) +
# [3] = Table 5 (extended variants), Sildenafil (10 μM) −
# [4] = Table 2, Sildenafil (10 μM) +, 24 hours
# [5] = Table 2, Sildenafil (10 μM) −, vehicle alone, 24 hours
# [6] = Table 2, fold change in GFP intensity, 24 hours
# [7] = Table 4 (D764 mutations), Sildenafil (10 μM) +
# [8] = Table 4 (D764 mutations), Sildenafil (10 μM) −
Substance,"Mean Fluorescence intensity [1, 2]","Mean Fluorescence intensity [1, 3]",Stabilization ratio ([1]; Table 5),basal expression in the absence of ligand (in words) [1],Stabilization ratio (PDE5A-AcGFP fusions),Mean Fluorescence Intensity (MFI) Sildenafil (20 μM) (PDE5A-AcGFP fusions),Mean Fluorescence Intensity (MFI) Vehicle control (PDE5A-AcGFP fusions),also measured
"PDE5AC 420-875 (Q589R): AcGFP fused to residues 420-875 of SEQ ID NO. 1 with Q589R polymorphism, SEQ ID NO. 17",572,620,0.9,low basal expression,–,–,–,–
"PDE5AC 466-875 (Q589R): AcGFP fused to residues 466-875 of SEQ ID NO. 1 with Q589R polymorphism, SEQ ID NO. 15",888,819,1.1,low basal expression,–,–,–,–
"PDE5AC 535-860 (Q589R): AcGFP fused to PDE5A catalytic domain residues 535-860 with Q589R polymorphism, SEQ ID NO. 11 [reference compound]",8557,8431,1.0,high basal expression,–,–,–,–
"PDE5AC 535-875 (Q589R): AcGFP fused to residues 535-875 of SEQ ID NO. 1 with Q589R polymorphism, SEQ ID NO. 13",6462,6761,1.0,high basal expression,–,–,–,–
"PDE5AC (#8): AcGFP fused to C-terminal DD 535-860 of PDE5A (F561L, F564L, Q589R, D724N, S766F, T802P), SEQ ID NO. 34",–,–,–,–,–,–,–,"Mean Fluorescence intensity [1, 4]: 3310; Mean Fluorescence intensity [1, 5]: 1066; Stabilization ratio [1, 6]: 3.1"
"PDE5AC (#40): AcGFP fused to C-terminal DD 535-860 of PDE5A (Q589R, D764G), SEQ ID NO. 26",–,–,–,–,–,–,–,"Mean Fluorescence intensity [1, 4]: 5923; Mean Fluorescence intensity [1, 5]: 1255; Stabilization ratio [1, 6]: 4.7; Mean Fluorescence intensity [1, 7]: 4229; Mean Fluorescence intensity [1, 8]: 917; Stabilization ratio ([1]; Table 4): 4.6"
"PDE5AC (#41) + D764G: PDE5AC (#41) engineered with D764G mutation, SEQ ID NO. 55",–,–,–,–,–,–,–,"Mean Fluorescence intensity [1, 7]: 730; Mean Fluorescence intensity [1, 8]: 709; Stabilization ratio ([1]; Table 4): 1.0"
"PDE5AC (#41) + D764N: PDE5AC (#41) engineered with D764N mutation, SEQ ID NO. 53",–,–,–,–,–,–,–,"Mean Fluorescence intensity [1, 7]: 1007; Mean Fluorescence intensity [1, 8]: 684; Stabilization ratio ([1]; Table 4): 1.5"
"PDE5AN (#19): N-terminal DD 535-860 of PDE5A (Q589R, I599V, T711A, F744L, L746S, L804P), SEQ ID NO. 31, fused to AcGFP",–,–,–,–,2.86,4297,1502,–
"PDE5AN (#30): N-terminal DD 535-860 of PDE5A (Q589R, L675P, F755L), SEQ ID NO. 69, fused to AcGFP",–,–,–,–,4.46,4713,1056,–
"PDE5AN (#35): N-terminal DD 535-860 of PDE5A (S560G, V585A, N587S, Q589R, K591E, S663P, F840S), SEQ ID NO. 32, fused to AcGFP",–,–,–,–,2.50,3684,1476,–
"PDE5AN (#55): N-terminal DD 535-860 of PDE5A (Q589R, I648V, M816T), SEQ ID NO. 33, fused to AcGFP",–,–,–,–,2.87,3602,1257,–
"PDE5AN (#57): N-terminal DD 535-860 of PDE5A (N587S, Q589R, K608E, N661S, D764V), SEQ ID NO. 68, fused to AcGFP",–,–,–,–,7.6,5851,770,–
